“Also recorded” adds a separate entry of the source.
Tests used:
HeLa cells [1] = experiment: GRAF1 localisation by immunofluorescent staining; assay type: cell-based, human; conditions: for colocalisation of GRAF1 with focal complex markers / number of GRAF1-positive tubules: 40 uM Y-27632 for 40 minutes
Procedure: FIG. 8 GRAF1 mediated trafficking is dependent upon dynamin and small G-proteins. a, HeLa cells incubated either with medium including vehicle (DMSO) or 50 um dynasore for 15 minutes before addition of dextran to these, cells for a further 15 minutes, (with DMSO/dynasore concentrations being retained throughout), before fixation and staining for GRAF1, dextran and paxillin. […] Note the absence of GRAF1-positive tubules in transfected cells. Scale bars=10 um. […] Note that endogenous GRAF1 tubes originate from within rings of beta1-integrins (a). […] Protein expression and purification Antibodies and constructs used are described in supplemental methods. Recombinant proteins were expressed in a BL21 (DE3) pLysS E-coli strain as Glutathione Stransferase (GST)-fusion proteins and purified using glutathione-Sepharose 4B beads (Amersham Biosciences) and gel filtration on a sephacryl S-200 column (Amersham) as previously described27. For analysis of endogenous protein expression, cell lines were grown according to instructions from American Tissue Culture Collection, harvested and lysed in 1% NP-40 in PBS supplemented with protease inhibitors. After a 20,000 g centrifugation the supernatant was analysed by SDS-PAGE and immunoblotting. Protein and lipid interaction assays Liposomes from total brain lipids (FOLCH fraction I) (Sigma Aldrich), from synthetic lipids (Avanti Polar Lipids), and liposomes of a specified diameter were generated as previously described10. Liposome binding assays for lipid specificity and curvature sensitivity was performed as previously described10. Briefly, proteins were incubated together with liposomes followed by centrifugation and analysis of the pellet and supernatant by SDS-PAGE and Coomassie staining. For immunoprecipitation experiments, rat brain cytosol was generated by homogenisation of rat brains in buffer (25 mM HEPES, 150 mM NaCl, 1 mM DTT, 0.1% Triton X-100 and protease inhibitors), before centrifugation at 50,000 rpm for 30 mins at 4i ? C. The supernatant was removed and added to protein A Sephorose 4B beads (Amersham Biosciensis) to which antibodies had been previously bound and incubated at 4° C. for 3 hrs. Beads were washed three times in buffer (25 mM HEPES, 150 mM NaCl) supplemented with 1% NP-40, and once in buffer without NP-40 before analysis by SDS-PAGE combined with immunoblotting or Coomassie staining. Pull-down experiments against rat brain cytosol using purified proteins and identification by mass-spectrometry were performed as previously described27. In vitro liposome tubulation assays were performed and analysed as previously described 10. Cell culture and transfections HeLa cells were grown in RPM1 1640 media (GIBCO) supplemented with L-Glutamine and 10% fetal bovine serum and transfected using Genejuice (Novagen) for transient protein expression. For primary cultures, rat hippocampal neurons/astrocytes were prepared by trypsin digestion and mechanical trituration from E18 or P1 Sprague-Dawley rats and plated onto poly L-lysine coated coverslips. Cells were cultured in B27-supplemented Neurobasal media. For GRAF1 depletion, HeLa cells were transfected with stealth siRNAs specific against human GRAF1 (Invitrogen) using Lipofectamine 2000 (Invitrogen) according to manufacturers instructions. Cells were cultured for an additional 48 hrs for efficient silencing of the GRAF1 expression. Stealth Block-it siRNA (Invitrogen) was used as a control. AP2 siRNA was used as previously described28. […]

HeLa cells [2] = experiment: tubular dextran uptake by immunofluorescence; assay type: cell-based, human; conditions: 50 um dynasore 15 minutes before dextran, further 15 minutes
Procedure: FIG. 8 GRAF1 mediated trafficking is dependent upon dynamin and small G-proteins. a, HeLa cells incubated either with medium including vehicle (DMSO) or 50 um dynasore for 15 minutes before addition of dextran to these, cells for a further 15 minutes, (with DMSO/dynasore concentrations being retained throughout), before fixation and staining for GRAF1, dextran and paxillin. […] Note the absence of GRAF1-positive tubules in transfected cells. Scale bars=10 um.
Protein expression and purification Antibodies and constructs used are described in supplemental methods. Recombinant proteins were expressed in a BL21 (DE3) pLysS E-coli strain as Glutathione Stransferase (GST)-fusion proteins and purified using glutathione-Sepharose 4B beads (Amersham Biosciences) and gel filtration on a sephacryl S-200 column (Amersham) as previously described27. For analysis of endogenous protein expression, cell lines were grown according to instructions from American Tissue Culture Collection, harvested and lysed in 1% NP-40 in PBS supplemented with protease inhibitors. After a 20,000 g centrifugation the supernatant was analysed by SDS-PAGE and immunoblotting. […] In vitro liposome tubulation assays were performed and analysed as previously described 10. […]

[3] = acute ischaemic stroke; cited from earlier work
[4] = system: GRAF1 BAR+PH overexpressing cells; experiment: localisation of overexpressed GFP-tagged GRAF1 BAR+PH protein, confocal microscopy; assay type: cell-based; conditions: 1 uM nocodazole for 1 hr
Excerpt: FIG. 9 Membrane tubules generated by the GRAF1 BAR+PH domain in vivo are mobile structures dependent upon microtubules. a, Representative Coomassie-stained gel of a typical liposome co-sedimentation assay with GST-tagged BAR+PH and liposomes of different diameters quantified in FIG. 2a (P=pellet, S=supernatant). b, Confocal micrographs showing the tubular localisation of overexpressed myc-tagged BAR+PH protein in HeLa cells and the cytoplasmic localisation of a similarly overexpressed protein with a BAR domain mutation (KK131/132EE). Scale bars=10 um. c, Electron micrographs of negatively-stained liposomes incubated in the presence or absence of GST-tagged GRAF1 BAR+PH protein. Note the presence of tubular structures present with BAR+PH protein and their absence in the control incubation. Scale bars=200 nm. d, Confocal micrographs of cells overexpressing GFP-tagged GRAF1 BAR+PH protein left untreated (Panel 1) or treated with 1 uM nocodazole for 1 hr and fixed immediately (Panel 2) or left to recover for 30 mins after nocodazole washout (Panel 3). Cells were then stained for beta-tubulin (lower images). GRAF1 BAR+PH-positive tubular structures were not present in nocodazole treated cells but recovered after nocodazole washout where they are observed to colocalise with beta-tubulin. e, Live cell spinning disc confocal imaging of a GFP-tagged GRAF1 BAR+PHover expressing cell at 20° C. […]

## C[C@@H](N)[C@H]1CC[C@H](C(=O)Nc2ccncc2)CC1 [Y-27632]
HeLa cells [1]
  colocalisation of GRAF1 with focal complex markers: vinculin is found mostly in focal complexes where it co-localises with GRAF1
  number of GRAF1-positive tubules: increases the number of GRAF1-positive tubules
HeLa cells [1]; listed as Rho kinase inhibitor
  colocalisation of GRAF1 with focal complex markers: increased the colocalisation of GRAF1 with 1-integrin, vinculin and dynamin
  number of GRAF1-positive tubules: dramatically increased the numbers of GRAF1-positive tubules

## O=C(N/N=C/c1ccc(O)c(O)c1)c1cc2ccccc2cc1O [dynasore]
HeLa cells [2]
  tubular dextran uptake: loss of tubular endocytosis through the CLIC/GEEC pathway; also recorded: profound reduction in tubular dextran uptake; also recorded: profoundly reduced ability to endocytose dextran in tubular structures
HeLa cells [1]; 50 um dynasore
  GRAF1-positive tubular structures / GRAF1 distribution: redistribute from tubular endocytic membranes to basal complexes; also recorded: reduction in GRAF1-positive tubular structures; also recorded: redistributed in these cells from tubular structures to basal punctae and rings

## O=S(=O)(c1cccc2cnccc12)N1CCCNCC1 [fasudil]
[3]
  toxicity in clinical trials: non-toxic

## COC(=O)Nc1nc2ccc(C(=O)c3cccs3)cc2[nH]1 [nocodazole]
[4]
  GRAF1 BAR+PH-positive tubular structures: not present; also recorded: abolishes the tubular localisation

Reference: patent US20110014185A1, “METHODS INVOLVING GRAF POLYPEPTIDES” (priority 2008, published 2011)
